{"source": "patent US20110262508A1", "about": "“ANTIMICROBIAL COMPOSITIONS, FORMULATIONS AND USES THEREOF” (priority 2007, published 2011)", "key": {"A. baumannii": {"test_system": "A. baumannii", "assay_type": "cell-based", "procedure,_shortened": "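Laboratory strains and 50 clinical isolates of A. baumannii were tested by CLSI broth microdilution, with serially diluted peptide (0.1-64 μg) and about 1×10^5 C.F.U. per well, incubated aerobically overnight at 35±2° C. MIC was read visually. MBC came from subculturing clear wells, as ≥99.9% inoculum reduction.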"}, "human RBC": {"test_system": "human RBC", "experiment": "Hemolysis of RBC", "assay_type": "cell-based", "procedure,_shortened": "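Washed human erythrocytes were exposed to varying peptide concentrations for 1 h at room temperature. After pelleting intact cells, lysis was read by absorbance at 450 nm and expressed relative to 0.1% Triton-lysed cells. MHC10 is the minimum peptide concentration causing 10% lysis.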"}, "[1]": {"experiment": "Cytotoxicity against Jurkat cells (CellTiter Blue)", "assay_type": "cell-based, human", "details": "human"}, "A. baumannii cultures": {"test_system": "A. baumannii cultures", "experiment": "Time taken to exert cytotoxic effect (killing time)", "assay_type": "cell-based", "experimental": "To determine the time killing times for bactericidal peptides, A. baumannii cultures were exposed to different concentrations of peptides for predetermined time periods, and the numbers of bacteria surviving at the end of each time period were determined. Peptides were classified as “Fast”, “Intermediate” or “Slow” according to whether they exerted their cytotoxic effect in less than 30 mins, or between 30-60 mins, or between […] and 240 mins."}, "[2]": {"test_system": "A. baumannii ATCC 19606, Acinetobacter spp. ATCC 17903, Acinetobacter spp. ATCC 19004, E. coli BL21, S. aureus, S. typhimurium AroA, P. aeruginosa, P. …", "experiment": "Antibacterial spectrum over the serial dilution panel (Table 6)", "assay_type": "cell-based", "details": "summary of Table 6", "procedure,_shortened": "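Growth inhibition in liquid culture: freshly inoculated strains exposed to roughly 5–10 μM peptide, 5-6 h shaking at 37° C. Absorbance at 595 nm measured growth, with 0.1% acetonitrile vehicle as control.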"}}, "note": "Peptide text beside a SMILES is read from it. * marks the point of attachment. Biotin = O=C1N[C@H]2[C@H](CS[C@H]2CCCCC(=O)*)N1"}
{"smiles": "CC[C@H](C)[C@H](NC(=O)[C@H](Cc1c[nH]c2ccccc12)NC(=O)[C@H](CC(=O)O)NC(=O)[C@H](CO)NC(=O)[C@H](CS)NC(=O)[C@H](CC(C)C)NC(=O)[C@H](CC(C)C)NC(=O)[C@H](C)NC(=O)[C@H](CS)NC(=O)[C@H](CCCNC(=N)N)NC(=O)[C@H](CC(C)C)NC(=O)[C@H](CCCNC(=N)N)NC(=O)[C@H](C)NC(=O)CNC(=O)[C@H](CCCNC(=N)N)NC(=O)[C@@H](NC(=O)CCCC[C@@H]1SC[C@@H]2NC(=O)N[C@@H]21)C(C)C)C(=O)N[C@H](C(=O)N[C@@H](CO)C(=O)N[C@@H](CS)C(=O)N[C@@H](CCCNC(=N)N)C(=O)N[C@@H](CC(C)C)C(=O)N[C@@H](CC(C)C)C(=O)NCC(=O)O)C(C)C", "note": "[Ac38] (Biotin-VRGARLRCALLCSDWIVSCRLLG-OH; N-terminus and C-terminus assumed)", "values": [{"measurement": "MIC (μM) for amidated peptide", "setting": "A. baumannii", "value": "15 to 20", "unit": "µM"}, {"measurement": "MIC (μM) for non-amidated Peptide", "setting": "A. baumannii", "value": 40, "unit": "µM"}, {"measurement": "bactericidal or bacteriostatic against A. baumannii", "setting": "A. baumannii", "value": "bactericidal"}, {"measurement": "MHC10", "setting": "human RBC", "value": ">100", "unit": "µM"}, {"measurement": "Percent hemolysis at 5 μM peptide", "setting": "human RBC; red cells of human, 5", "value": 0.8, "unit": "%"}, {"measurement": "Percent hemolysis at 10 μM peptide", "setting": "human RBC; red cells of human, 10", "value": 3.8, "unit": "%"}, {"measurement": "Percent hemolysis at 20 μM peptide", "setting": "human RBC; red cells of human, 20", "value": 4.8, "unit": "%"}, {"measurement": "Percent hemolysis at 40 μM peptide", "setting": "human RBC; red cells of human, 40", "value": 11.9, "unit": "%"}, {"measurement": "Percent hemolysis at 60 μM peptide", "setting": "human RBC; red cells of human, 60", "value": 19.5, "unit": "%"}, {"measurement": "Percent hemolysis at 80 μM peptide", "setting": "human RBC; red cells of human, 80", "value": 26.9, "unit": "%"}, {"measurement": "Percent hemolysis at 100 μM peptide", "setting": "human RBC; red cells of human, 1 h, 100", "value": 27.9, "unit": "%"}, {"measurement": "cytotoxicity at 12.5 μM", "setting": "[1]", "value": 0, "unit": "%"}, {"measurement": "cytotoxicity at 25 μM", "setting": "[1]", "value": 0, "unit": "%"}, {"measurement": "cytotoxicity at 50 μM", "setting": "[1]", "value": 0, "unit": "%"}, {"measurement": "killing time classification", "setting": "A. baumannii cultures", "value": "RAPID"}, {"measurement": "selectively inhibited growth of A. baumannii ATCC Accession No. 19606, Acinetobacter spp. ATCC 17903, Acinetobacter spp. ATCC 19004, and S. aureus", "setting": "[2]", "value": "selectively inhibited growth"}]}
